Test results from US8119671B2, “Isoxazoline-substituted benzamide compound and pest control agent” (Nissan Chemical Industries, Ltd., priority 2007, dated 2012).

Assays:
Format in all cases: in vivo
[1] = tested on: Liriomyza trifolii; experiment: Test Example 13: Mortality Test for Liriomyza trifolii; details: 144 h, drug solution 500 ppm, kidney bean leaf with eggs immersed, after 6 days
Protocol: (§1) A 10% emulsifiable concentrate of the compound of the present invention (depending on the type of the compound, a 10% wettable powder was subjected to the test) was diluted with water containing a spreader to prepare a drug solution in a concentration of 500 ppm. In this drug solution, a leaf of kidney bean on which Liriomyza trifolii laid eggs (10 eggs/leaf) and which was cut out to a diameter of 7 cm was immersed for about 10 seconds and was air-dried and then laid on a wet filtration paper laid in a styrol cup having an inner diameter of 7 cm. The styrol cup was capped and stored in a thermostat room of 25° C. The number of killed larvae after 6 days was measured and the mortality was calculated from the same calculation formula as that in Test Example 1. Here, the test was carried out with two replications.

[2] = tested on: Bemisia argentifolii; experiment: Test Example 9: Mortality Test for Bemisia argentifolii; details: in Solanum lycopersicum, 144 h
Protocol: (§2) In a styrol cup having an inner diameter of 7 cm, a wet filtration paper was laid, and on the paper, a cut-out leaf of tomato on which Bemisia argentifolii laid eggs (10 eggs/leaf) was laid. A 10% emulsifiable concentrate of the compound of the present invention (depending on the type of the compound, a 10% wettable powder was subjected to the test) was diluted with water containing a spreader to prepare a drug solution in a concentration of 500 ppm. The drug solution was dusted using a rotary dusting tower in an amount of 2.5 mL per styrol cup and the cup was capped and stored in a thermostat room of 25° C. The number of killed larvae after 6 days was measured and the mortality was calculated from the same calculation formula as that in Test Example 1. Here, the test was carried out with two replications.

[3] = tested on: Spodoptera litura; experiment: Test Example 2: Mortality Test for Spodoptera litura; details: 144 h
Protocol: as §1, with “10” for “500”, “canarium album” for “kidney bean on which Liriomyza trifolii laid eggs (10 eggs/leaf) and which was cut out to a diameter of 7 cm”, “put into” for “laid on”, “petri dish. In the petri dish, five 2 instar larvae” for “wet filtration paper laid in a styrol cup having an inner diameter”, “Spodoptera litura per petri dish were released and the petri dish” for “7 cm. The styrol cup”

[4] = tested on: Tetranychus urticae; experiment: Test Example 14: Mortality Test for Tetranychus urticae; details: 144 h
Protocol: as §2, with “a” for “a cut-out”, “kidney bean cut out so as to have the same diameter as the inner diameter of the cup” for “tomato on which Bemisia argentifolii laid eggs (10 eggs/leaf)”, “laid, followed by inoculating 10 larvae of Tetranychus urticae per leaf to the leaf.” for “laid.”

[5] = tested on: Ctenocephalides felis; experiment: Test Example 15: Mortality Test for Cat Flea; details: 96 h
Protocol: To the bottom surface and the side surface of a petri dish having an inner diameter of 5.3 cm, 400 μL of an acetone solution in which 40 mg of the compound of the present invention was dissolved in 40 mL of acetone (concentration: 1,000 ppm) was applied and the acetone was volatilized to form a thin film of the compound of the present invention on the inner wall of the petri dish. The inner wall of the used petri dish has an area of 40 cm^2, so that the amount of the applied drug is 1 μg/cm^2. In the petri dish, 10 Ctenocephalides felis imagines (male and female were mixed) were released and the petri dish was capped and stored in a thermostat room of 25° C. The number of killed larvae after 4 days was measured and the mortality was calculated from the same calculation formula as that in Test Example 1. Here, the test was carried out on the single sample.

[6] = tested on: Plutella xylostella; experiment: Test Example 1: Mortality Test for Plutella xylostella; details: 144 h
Protocol: A 10% emulsifiable concentrate of the compound of the present invention (depending on the type of the compound, a 10% wettable powder was subjected to the test) was diluted with water containing a spreader to prepare a drug solution in a concentration of 10 ppm. In this drug solution, a leaf of canarium album was immersed for about 10 seconds and was air-dried and then put into a petri dish. In the petri dish, five 2 instar larvae of Plutella xylostella per petri dish were released and the petri dish was capped and stored in a thermostat room of 25° C. The number of killed larvae after 6 days was measured and the mortality was calculated from the following calculation formula: Mortality (%)=(number of killed larvae/number of released larvae)×100. Here, the test was carried out with two replications.

[7] = tested on: Thrips palmi; experiment: Test Example 6: Mortality Test for Thrips palmi; details: 48 h
Protocol: (§3) In a styrol cup having an inner diameter of 7 cm, a wet filtration paper was laid, and on the paper, a leaf of kidney bean cut out so as to have the same diameter as the inner diameter of the cup was laid, followed by inoculating 10 imagines of Thrips palmi per leaf to the leaf. A 10% emulsifiable concentrate of the compound of the present invention (depending on the type of the compound, a 10% wettable powder was subjected to the test) was diluted with water containing a spreader to prepare a drug solution in a concentration of 100 ppm. The drug solution was dusted using a rotary dusting tower in an amount of 2.5 mL per one styrol cup and the cup was capped and stored in a thermostat room of 25° C. The number of killed imagines after 2 days was measured and the mortality was calculated from the same calculation formula as that in Test Example 1. Here, the test was carried out with two replications.

[8] = tested on: Frankliniella occidentalis; experiment: Test Example 5: Mortality Test for Frankliniella occidentalis; details: 48 h
Protocol: as §3, with “ten 1 instar larvae” for “10 imagines”, “Frankliniella occidentalis” for “Thrips palmi”, “500” for “100”, “per” for “per one”, “larvae” for “imagines”

Cc1cc(C2=NOC(c3cc(Cl)cc(Cl)c3)(C(F)(F)F)C2)ccc1C(=O)NC1(c2ccccn2)CC1 (centres unmarked) [No. 1-007, 4-[5-(3,5-Dichlorophenyl)-5-trifluoromethyl-4,5-dihydroisoxazole-3-yl]-2-methyl-N-[1-(2-pyridyl)cyclopropyl]benzamide]
≥ 80%: mortality at 500 ppm [1] | mortality at 500 ppm [2] | mortality at 10 ppm [3] | mortality at 500 ppm [4] | mortality at 1000 ppm, 1 µg/cm2 [5] | mortality at 10 ppm [6] | mortality at 100 ppm [7] | mortality at 500 ppm [8]
